Entries after “also recorded” stand apart in the source; their conditions may differ.
How the values were obtained:
[1] = test system: Carrageenan-Induced Cellular Infiltration into the Rat Air Pouch; experiment: Carrageenan-induced air pouch inflammation; type: in vivo, rat (male Lewis); details: for Cell infiltration into carrageenan air pouch, result in words: rat, in vivo
Description: (§1) In the following Examples where mice were used, they were male Balb/c mice (20-28 g), and where rats were used, they were male Lewis rats (180-210 g). All mice and rats were obtained from Charles River Breeding Laboratories, Kingston, N.Y. Within a single experiment, mice and rats were sex and age matched.
(§2) The compounds of Formula (I) were used either as the free base or in the appropriate salt form. Levamisole was used as the hydrochloride salt. The compounds were homogenized in 0.5% tragacanth. Compounds were administered by gavage at the indicated dose in a final volume of 10 ml/kg. Nordihydroguaiaretic acid (NDGA) was solubilized in dimethylacetamide and diluted with olive oil for subcutaneous administration.
(§3) Rats were shaved on the dorsal flank, and then injected subcutaneously one day later with 20 ml of air to form a defined pouch, by the method of Sedgwick et al., J. Pathology, 141, 483-495 (1983). The air pouch was reinflated as necessary over the next 6 days. To assay anti-inflammatory activity, animals were treated orally with test compound or vehicle (10 ml/kg) one hour before injection of 2.0 ml of a 2.0% carrageenan suspension containing […] penicillin and 100 µg/ml streptomycin into the air pouch. In other experiments, 5 ml of 0.1% arachidonic acid in 0.2M bicarbonate buffer was injected two hours after drug treatment. Animals were sacrificed using CO2 three hours after instillation of irritant. The exudate was then aspirated from the pouch and neutrophil count and differential cell count were measured.

[2] = test system: Arachidonic Acid-Induced Cellular Infiltration into the Rat Air Pouch; experiment: Arachidonic acid-induced air pouch inflammation; type: in vivo, rat (male Lewis); details: for Cell infiltration into arachidonic acid air pouch, result in words: rat, in vivo
Description: as §1, §2, §3

5-Lipoxygenase [3] = biological target: T1, 5-Lipoxygenase (Rattus norvegicus, UniProt P12527); experiment: 5-HETE production by high speed supernatant of RBL-1 cells; type: biochemical
T1 construct: The activities of these enzymes in extracts of RBL-1 cells were assayed; host or cells: RBL-1
T1 sequence (P12527 1-673): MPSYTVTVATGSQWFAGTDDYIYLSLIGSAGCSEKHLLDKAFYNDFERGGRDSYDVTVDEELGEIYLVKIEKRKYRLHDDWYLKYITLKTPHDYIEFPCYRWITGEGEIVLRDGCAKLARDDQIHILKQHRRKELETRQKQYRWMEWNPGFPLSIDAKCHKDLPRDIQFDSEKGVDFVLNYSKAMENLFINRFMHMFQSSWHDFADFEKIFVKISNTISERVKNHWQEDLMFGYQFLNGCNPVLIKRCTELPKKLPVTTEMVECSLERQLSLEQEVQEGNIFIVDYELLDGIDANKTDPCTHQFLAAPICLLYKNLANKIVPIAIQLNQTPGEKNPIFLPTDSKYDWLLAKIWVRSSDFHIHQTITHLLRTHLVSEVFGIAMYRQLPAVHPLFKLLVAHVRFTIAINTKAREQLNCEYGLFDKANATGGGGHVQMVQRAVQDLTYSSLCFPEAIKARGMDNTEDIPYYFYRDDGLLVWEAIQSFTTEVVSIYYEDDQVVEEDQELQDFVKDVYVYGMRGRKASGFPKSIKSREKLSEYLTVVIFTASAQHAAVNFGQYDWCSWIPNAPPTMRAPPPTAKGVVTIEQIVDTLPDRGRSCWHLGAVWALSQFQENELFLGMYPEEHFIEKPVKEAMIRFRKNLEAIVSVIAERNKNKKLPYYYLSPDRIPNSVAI
Protocol: For in vitro experiments, compounds were dissolved at appropriate concentrations in ethanol or DMSO (dimethylsulfoxide) (final concentration≤1.0%) and then diluted to final concentrations using the buffers indicated in the text.
The activities of these enzymes in extracts of RBL-1 cells were assayed using the method of Jakschik and Lee, Nature, 287, 51-52 (1980). RBL-1 cells were obtained from the American Type Culture Collection (#CRL 1378) and were grown at 37° C. (5% CO2 in air) in spinner culture in MEM supplemented with 10% heat inactivated fetal calf serum. Harvested cells were washed with 50 mM sodium phosphate buffer, pH 7.0, containing 1 mM EDTA and 0.1% gelatin, resuspended in fresh buffer (5×10^7 cells/ml) and disrupted by nitrogen cavitation using the Parr bomb at 750 psi for 10 min. The broken cell extract was then centrifuged at 10,000× g for 20 minutes (min) and the supernatant centrifuged at 100,000 xIg for 60 min. Aliquots (0.25 mls) of the supernatant were preincubated with or without drugs for 10 min, after which 10 μl CaCl2 (50 mM) was added and the reaction was initiated with 2.5 μl of 2.5 mM arachidonic acid-1-^14 C (final concentration was 25 μM; specific activity 20,000 dpm/nmole). After incubation for 3 min at 37° C., the reaction was terminated by addition of 2 volumes (0.5 ml) ice cold acetone and the sample was allowed to deproteinize on ice for 10 min prior to centrifugation at 1,000× g for 10 min. The deproteinized supernatant was adjusted to pH 3.5 with 2N formic acid and extracted with 2 volumes of ice cold ethyl acetate. The extracted samples were dried under argon, redissolved in ethyl acetate and applied to Whatman LK5D thin layer chromatography (TLC) plates which were developed using the A-9 solvent system [organic phase of ethyl acetate: 2,2,5-trimethylpentane:acetic acid: water (110:50:20:10)] described by Hamberg and Samuelsson, J. Biol. Chem., 241, 257-263 (1966). Arachidonic acid, 5-HETE, LTB4 and PGD2 were quantified with a Berthold LB 2832 autoscanner.
The 5-lipoxygenase and LTA4 synthetase activities were further studied under the following conditions. An additional centrifugation of the RBL-1 supernatant was run at 100,000× g for 60 min, to remove the particulate cyclooxygenase activity. Sample incubation was done under conditions similar to those described above, i.e., 2 mM CaCl2 and […] arachidonic acid-1-^14 C, however, with an incubation time of 5 min at 5° C. Under these conditions, only the 5-lipoxygenase pathway metabolites were detectable. The 5-HETE and di-HETEs were formed at a linear rate, and substantial amounts of the arachidonic acid-1-^14 C substrate were utilized.

5-Lipoxygenase [4] = biological target: T1, 5-Lipoxygenase; experiment: 5-Lipoxygenase activity (5-HETE) in RBL-1 cell extracts, 10,000 x g supernatant; type: biochemical; details: Table 8
Protocol: RBL-1 cells were obtained from the American Type Culture Collection (#CRL 1378) and were grown at 37° C. (5% CO2 in air) in spinner culture in MEM supplemented with 10% heat inactivated fetal calf serum. Harvested cells were washed with 50 mM sodium phosphate buffer, pH 7.0, containing 1 mM EDTA and 0.1% gelatin, resuspended in fresh buffer (5×10^7 cells/ml) and disrupted by nitrogen cavitation using the Parr bomb at 750 psi for 10 min. The broken cell extract was then centrifuged at 10,000× g for 20 minutes (min) and the supernatant centrifuged at 100,000 xIg for 60 min. Aliquots (0.25 mls) of the supernatant were preincubated with or without drugs for 10 min, after which 10 μl CaCl2 (50 mM) was added and the reaction was initiated with 2.5 μl of 2.5 mM arachidonic acid-1-^14 C (final concentration was 25 μM; specific activity 20,000 dpm/nmole). After incubation for 3 min at 37° C., the reaction was terminated by addition of 2 volumes (0.5 ml) ice cold acetone and the sample was allowed to deproteinize on ice for 10 min prior to centrifugation at 1,000× g for 10 min. […] Arachidonic acid, 5-HETE, LTB4 and PGD2 were quantified with a Berthold LB 2832 autoscanner.

With `Fc1ccc(-c2nc3n(c2-c2ccncc2)CCS3)cc1` [Compound 1] the “Cellular Infiltrate MN” value ([1]; 100 mg/kg) was 5.5 ± 3.8 Total × 10^-6, the “Cellular Infiltrate PMN” value ([1]; 100 mg/kg) was 2.6 ± 1.3 Total × 10^-6 and the “Exudate Volume” value ([1]; 100 mg/kg) was 1.0 ± 0.9 mL. The “Cell infiltration into carrageenan air pouch, result in words” value [1] was “significant inhibition of polymorphonuclear leukocyte infiltration”, the “Cellular Infiltrate MN” value ([2]; 100 mg/kg) was 1.5 ± 1.1 Total × 10^-6 and the “Cellular Infiltrate PMN” value ([2]; 100 mg/kg) was 1.2 ± 0.7 Total × 10^-6. For the same compound, the “Exudate Volume” value ([2]; 100 mg/kg) was 2.6 ± 0.8 mL, the “Cell infiltration into arachidonic acid air pouch, result in words” value [2] was “significantly reduced PMN and mononuclear cell infiltration” and the 5-HETE (5-Lipoxygenase [3]; 1 μM) was 8.86 ± 0.31 nM/ml. It also gave a 5-HETE (5-Lipoxygenase [3]; 3.3 μM) of 7.63 ± 0.44 nM/ml, a 5-HETE (5-Lipoxygenase [3]; 10 μM) of 5.57 ± 0.35 nM/ml and a 5-HETE (5-Lipoxygenase [3]; 33 μM) of 3.36 ± 0.07 nM/ml. The 5-HETE (5-Lipoxygenase [3]; 100 μM) was 1.08 ± 0.13 nM/ml.

With `COc1ccc2c(c1)c(CC(=O)O)c(C)n2C(=O)c1ccc(Cl)cc1` [Indomethacin] the “Cellular Infiltrate MN” value ([1]; 5 mg/kg) was 4.0 ± 0.8 Total × 10^-6, the “Cellular Infiltrate PMN” value ([1]; 5 mg/kg) was 2.8 ± 0.7 Total × 10^-6 and the “Exudate Volume” value ([1]; 5 mg/kg) was 2.0 ± 0.5 mL. The “Cell infiltration into carrageenan air pouch, result in words” value [1] was “reduction in the PMN count and the PMN:mononuclear cell ratio”, the “Cellular Infiltrate MN” value ([2]; 5 mg/kg) was 7.0 ± 6.4 Total × 10^-6 and the “Cellular Infiltrate PMN” value ([2]; 5 mg/kg) was 5.0 ± 3.8 Total × 10^-6. The “Exudate Volume” value ([2]; 5 mg/kg) was 2.5 ± 0.8 mL, the “Cell infiltration into arachidonic acid air pouch, result in words” value [2] was “did not reduce inflammation or cell infiltration; also recorded: no significant effect on cell infiltration” and the “IC50 5-Lipoxygenase” value (5-Lipoxygenase [4]) was “Inactive @ 30”.

Source: patent US5134150A, “Inhibition of the 5-lipoxygenase pathway” (priority 1989, dated 1992)
